Assay: DPPH assay for antioxidant activity (radical scavenging)
Type: biochemical
Settings: 0.1 mM DPPH solution, absorbance at 517 nm; masses greater than or equal to 40 μg
Procedure: 2,2-diphenyl-1-(2,4,6-trinitrophenyl) hydrazyl (DPPH) radical scavenging activity of BKF melanin was measured according to the procedure described in the literature. […] Afterwards, the UV-vis absorbance spectra were collected to monitor the decrease in the absorbance at 517 nm due to quenching of DPPH radical by the BKF melanin. Similar volumes of BKF melanin solution were added to pure ethanol (instead of 0.1 mM DPPH solution) to measure the absorbance of BKF melanin itself. Afterwards, the scavenging activity (or antioxidant activity) [I] was calculated using Equation 1, where Ac is the absorbance of DPPH solution without any BKF melanin, Ai is the absorbance of DPPH solution mixed with varying amounts of BKF melanin, and Aj is the absorbance of BKF melanin itself without DPPH solution. […]
The antioxidant activity of BKF melanin was investigated using the DPPH assay described above. The scavenging activity was determined by monitoring the decrease in absorbance of DPPH at 517 nm, since the DPPH is reduced through an electron transfer from the antioxidant material. […] As the ascorbic acid concentration increases from 0 to 60 μg, the absorbance at 517 nm decreases along with visual change in color from purple to yellow. The antioxidant activity (%) calculated using Equation 1 is plotted as a function of ascorbic acid mass in FIG. 3B. […]

SMILES: O=C1O[C@H]([C@@H](O)CO)C(O)=C1O [ascorbic acid]
- antioxidant activity (%), saturated value: ~90%

— patent US12595357B2, “Black knot melanin—a super-additive with UV absorbing and antioxidant properties” (The University of Akron, priority 2021, dated 2026)
